# Measured values: patent US20250296959A1, “B7-H3 TARGETING PEPTIDES AND CONSTRUCTS THEREOF” (Mariana Oncology Inc., priority 2024, published 2025)
# Starred links: 1 amine or outer side, 2 acyl side, 3 side chain; linkers in the order of their positions; H or OH if unused. Positions of bridges follow the written chain, without caps; N, C: chain ends. Non-standard residues stand in square brackets, D forms with d. Residues, ends and D or L forms follow the SMILES beside them. Groups on a side chain read outwards from the residue. *: point of attachment. X7 = O=C(O)CN1CCN(CC(=O)O)CCN(CC(=O)NCCOCCOCCOCCOCCOCCOCCOCCOCC(=O)*)CCN(CC(=O)O)CC1; Ala(1-CH2CO2H-4-piperidyl) = N[C@@H](CC1CCN(CC(=O)O)CC1)C(=O)O; Ala(piperidin-4-yl) = O=C([C@H](CC1CCN([*:3])CC1)N[*:1])[*:2]; Phe(3-CH2NH2) = O=C([C@H](Cc1cccc(CN[*:3])c1)N[*:1])[*:2]; DOTA = O=C(O)CN1CCN(CC(=O)O)CCN(CC(=O)*)CCN(CC(=O)O)CC1; Trp(5-F) = N[C@@H](Cc1c[nH]c2ccc(F)cc12)C(=O)O; Trp(5-Me) = Cc1ccc2[nH]cc(C[C@H](N)C(=O)O)c2c1; X1 = C[C@@H](c1ccccc1)[C@H](N[*:1])C(=O)[*:2]; 1Nal = N[C@@H](Cc1cccc2ccccc12)C(=O)O; Ala(4-THP) = N[C@@H](CC1CCOCC1)C(=O)O; Gly(4-THP) = N[C@H](C(=O)O)C1CCOCC1; Val(3-OH) = CC(C)(O)[C@H](N)C(=O)O; aThr = C[C@H](O)[C@H](N)C(=O)O; PEG4 = NCCOCCOCCOCCOCCC(=O)O; Tle = CC(C)(C)[C@H](N)C(=O)O; hLeu = CC(C)CC[C@H](N)C(=O)O; αMeP = C[C@@]1(C(=O)O)CCCN1; NMeS = CN[C@@H](CO)C(=O)O; Nle = CCCC[C@H](N)C(=O)O; Orn = NCCC[C@H](N)C(=O)O; CH2 = C([*:1])[*:2]
# Biological target: T1, human 4lg B7-H3 (Homo sapiens, UniProt Q5ZPR3)
# T1 sequence (Q5ZPR3 29-534): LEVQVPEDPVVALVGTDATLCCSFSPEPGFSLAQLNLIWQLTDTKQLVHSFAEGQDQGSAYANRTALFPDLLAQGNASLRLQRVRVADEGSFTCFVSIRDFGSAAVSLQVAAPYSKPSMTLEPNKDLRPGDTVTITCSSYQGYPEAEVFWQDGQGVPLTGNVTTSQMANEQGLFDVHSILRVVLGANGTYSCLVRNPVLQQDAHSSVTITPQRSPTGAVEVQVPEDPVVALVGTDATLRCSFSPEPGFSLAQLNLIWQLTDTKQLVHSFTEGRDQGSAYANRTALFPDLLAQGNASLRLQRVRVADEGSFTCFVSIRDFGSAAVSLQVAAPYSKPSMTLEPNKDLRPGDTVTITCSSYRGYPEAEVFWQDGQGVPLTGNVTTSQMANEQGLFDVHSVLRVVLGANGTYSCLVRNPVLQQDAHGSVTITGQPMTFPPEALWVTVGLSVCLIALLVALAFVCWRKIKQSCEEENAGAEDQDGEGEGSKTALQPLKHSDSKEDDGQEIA
# Experiment: Affinity determination by surface plasmon resonance (SPR) to 4Ig B7-H3
# Details: 4Ig B7-H3
# [1] = SPR KD—37° C., 37° C. flow cell temperature
# [2] = SPR KD—25° C., 25° C. flow cell temperature
SMILES,Kd [1],Kd [2]
"CC(=O)N[C@@H](CCC(C)C)C(=O)N[C@@H](Cc1ccc(O)cc1)C(=O)N[C@H]1CSSC[C@@H](C(=O)N[C@@H](Cc2c[nH]c3ccc(F)cc23)C(=O)N[C@@H](Cc2ccccc2)C(=O)N[C@H](C(=O)N[C@H](CO)C(N)=O)C(C)(C)O)NC(=O)[C@H](Cc2ccc(O)cc2)NC(=O)[C@H](C(C)C)NC(=O)[C@H](CC(=O)O)NC(=O)[C@H](CC2CCN(C(=O)CCOCCOCCOCCOCCNC(=O)CN3CCN(CC(=O)O)CCN(CC(=O)O)CCN(CC(=O)O)CC3)CC2)NC(=O)[C@H](CC2CCNCC2)NC(=O)CNC(=O)[C@H](C(C)(C)C)NC1=O [compound 446, Ac-hLeu-Y-C-Tbg-G-PipAla-Pip(PEG4-DOTA)Ala-D-V-Y-C-5FW-F-hydroxyVal-dSer-CONH2] (Ac-[hLeu]YC[Tle]G[Ala(piperidin-4-yl)][Ala(piperidin-4-yl)]([PEG4-DOTA])DVYC[Trp(5-F)]F[Val(3-OH)][dS]-NH2; disulfide 3-11)",< 1 nM,–
"CC(=O)N[C@@H](CCC(C)C)C(=O)N[C@@H](Cc1ccc(O)cc1)C(=O)N[C@H]1CSSC[C@@H](C(=O)N[C@@H](Cc2c[nH]c3ccccc23)C(=O)N[C@@H](Cc2ccccc2)C(=O)N[C@H](C(=O)N[C@H](CCCCNC(=O)CN2CCN(CC(=O)O)CCN(CC(=O)O)CCN(CC(=O)O)CC2)C(N)=O)[C@@H](C)O)NC(=O)[C@H](Cc2ccc(O)cc2)NC(=O)[C@H](C(C)C)NC(=O)[C@H](CC(=O)O)NC(=O)[C@H](Cc2ccc(O)cc2)NC(=O)[C@H](CCCCN)NC(=O)CNC(=O)[C@H]([C@H](C)O)NC1=O [compound 120, Ac-hLeu-Y-C-alloThr-G-K-Y-D-V-Y-C-W-F-Thr-dLys(DOTA)-CONH2] (Ac-[hLeu]YC[aThr]GKYDVYCWFT[dK](DOTA)-NH2; disulfide 3-11)",–,10 to 100 nM
"CC(=O)N[C@@H](CCC(C)C)C(=O)N[C@@H](Cc1ccc(O)cc1)C(=O)N[C@H]1CSSC[C@@H](C(=O)N[C@@H](Cc2c[nH]c3ccc(F)cc23)C(=O)N[C@@H](Cc2ccccc2)C(=O)N2CCC[C@H]2C(=O)N[C@H](CCCCNC(=O)CN2CCN(CC(=O)O)CCN(CC(=O)O)CCN(CC(=O)O)CC2)C(=O)O)NC(=O)[C@H](Cc2ccc(O)cc2)NC(=O)[C@H](C(C)C)NC(=O)[C@H](CC(=O)O)NC(=O)[C@H](CC2CCOCC2)NC(=O)[C@H](CC2CCN(CC(=O)O)CC2)NC(=O)CNC(=O)[C@H](C(C)(C)C)NC1=O [compound 319, Ac-hLeu-Y-C-Tbg-G-[Pip(CH2CO2H)Ala]-ThpA-D-V-Y-C-5FW-F-Pro-dLys(DOTA)-COOH] (Ac-[hLeu]YC[Tle]G[Ala(1-CH2CO2H-4-piperidyl)][Ala(4-THP)]DVYC[Trp(5-F)]FP[dK](DOTA)-OH; disulfide 3-11)",1 to 10 nM,–
"CC(=O)N[C@@H](CCC(C)C)C(=O)N[C@H](C(=O)N[C@H]1CSSC[C@@H](C(=O)N[C@@H](Cc2c[nH]c3ccc(F)cc23)C(=O)N[C@@H](Cc2ccccc2)C(=O)N(C)[C@@H](CO)C(=O)N[C@H](CCCCNC(=O)CN2CCN(CC(=O)O)CCN(CC(=O)O)CCN(CC(=O)O)CC2)C(N)=O)NC(=O)[C@H](Cc2ccc(O)cc2)NC(=O)[C@H](C(C)C)NC(=O)[C@H](CC(=O)O)NC(=O)[C@H](Cc2ccc(O)cc2)NC(=O)[C@H](CC2CCNCC2)NC(=O)CNC(=O)[C@H](C(C)C)NC1=O)C1CCOCC1 [compound 213, Ac-hLeu-ThpG-C-V-G-PipAla-Y-D-V-Y-C-5FW-F-NMeSer-dLys(DOTA)-CONH2] (Ac-[hLeu][Gly(4-THP)]CVG[Ala(piperidin-4-yl)]YDVYC[Trp(5-F)]F[NMeS][dK](DOTA)-NH2; disulfide 3-11)",–,100 to 300 nM
"CC(=O)N[C@@H](CCC(C)C)C(=O)N[C@@H](Cc1ccc(O)cc1)C(=O)N[C@H]1CSSC[C@@H](C(=O)N[C@@H](Cc2c[nH]c3ccc(F)cc23)C(=O)N[C@@H](Cc2ccccc2)C(=O)N[C@H](C(N)=O)C(C)(C)O)NC(=O)[C@H](Cc2ccc(O)cc2)NC(=O)[C@H](C(C)C)NC(=O)[C@H](CC(=O)O)NC(=O)[C@H](CC2CCN(C(=O)CCOCCOCCOCCOCCNC(=O)CN3CCN(CC(=O)O)CCN(CC(=O)O)CCN(CC(=O)O)CC3)CC2)NC(=O)[C@H](CC2CCNCC2)NC(=O)CNC(=O)[C@H](C(C)(C)C)NC1=O [compound 445, Ac-hLeu-Y-C-Tbg-G-PipAla-Pip(PEG4-DOTA)Ala-D-V-Y-C-5FW-F-hydroxyVal-CONH2] (Ac-[hLeu]YC[Tle]G[Ala(piperidin-4-yl)][Ala(piperidin-4-yl)]([PEG4-DOTA])DVYC[Trp(5-F)]F[Val(3-OH)]-NH2; disulfide 3-11)",< 1 nM,–
"CC(=O)N[C@@H](CCC(C)C)C(=O)N[C@@H](Cc1ccc(O)cc1)C(=O)N[C@H]1CSSC[C@@H](C(=O)N[C@@H](Cc2cccc3ccccc23)C(=O)N[C@@H](Cc2ccccc2)C(=O)N2CCC[C@H]2C(N)=O)NC(=O)[C@H](Cc2ccc(O)cc2)NC(=O)[C@H](C(C)C)NC(=O)[C@H](CC(=O)O)NC(=O)[C@H](Cc2cccc(CNC(=O)COCCOCCOCCOCCOCCOCCOCCOCCNC(=O)CN3CCN(CC(=O)O)CCN(CC(=O)O)CCN(CC(=O)O)CC3)c2)NC(=O)[C@H](CCCCN)NC(=O)CNC(=O)[C@H](C(C)(C)C)NC1=O [compound 279, Ac-hLeu-Y-C-Tbg-G-K-MAF(PEG8-DOTA)-D-V-Y-C-1Nal-F-Pro-CONH2] (Ac-[hLeu]YC[Tle]GK[Phe(3-CH2NH2)](X7)DVYC[1Nal]FP-NH2; disulfide 3-11)",–,1 to 10 nM
"CCCC[C@H](NC(C)=O)C(=O)N[C@@H](Cc1ccc(O)cc1)C(=O)N[C@H]1CSSC[C@@H](C(=O)N[C@@H](Cc2c[nH]c3ccccc23)C(=O)N[C@@H](Cc2ccccc2)C(=O)N[C@@H](CCCN)C(=O)N[C@H](CCCCNC(=O)CN2CCN(CC(=O)O)CCN(CC(=O)O)CCN(CC(=O)O)CC2)C(N)=O)NC(=O)[C@H](Cc2ccc(O)cc2)NC(=O)[C@H](C(C)C)NC(=O)[C@H](CC(=O)O)NC(=O)[C@H](Cc2ccc(O)cc2)NC(=O)[C@H](CCCCN)NC(=O)CNC(=O)[C@H](C(C)C)NC1=O [compound 87, Ac-Nle-Y-C-V-G-K-Y-D-V-Y-C-W-F-Orn-dLys(DOTA)-CONH2] (Ac-[Nle]YCVGKYDVYCWF[Orn][dK](DOTA)-NH2; disulfide 3-11)",–,10 to 100 nM
"CC(=O)N[C@@H](CCC(C)C)C(=O)N[C@@H](Cc1ccc(O)cc1)C(=O)N[C@H]1CSCSC[C@@H](C(=O)N[C@@H](Cc2c[nH]c3ccc(F)cc23)C(=O)N[C@@H](Cc2ccccc2)C(=O)N[C@H](C(=O)N[C@H](CCCCNC(=O)CN2CCN(CC(=O)O)CCN(CC(=O)O)CCN(CC(=O)O)CC2)C(N)=O)[C@@H](C)O)NC(=O)[C@H](Cc2ccc(O)cc2)NC(=O)[C@H](C(C)C)NC(=O)[C@H](CC(=O)O)NC(=O)[C@H](Cc2ccc(O)cc2)NC(=O)[C@H](CCCCN)NC(=O)CNC(=O)[C@H](C(C)C)NC1=O [compound 189, Ac-hLeu-Y-C(CH2)-V-G-K-Y-D-V-Y-C-5FW-F-Thr-dLys(DOTA)-CONH2] (Ac-[hLeu]YCVGKYDVYC[Trp(5-F)]FT[dK](DOTA)-NH2; linker 3-11 via CH2)",–,100 to 300 nM
"CC(=O)N[C@@H](CCC(C)C)C(=O)N[C@@H](Cc1ccc(O)cc1)C(=O)N[C@H]1CSSC[C@@H](C(=O)N[C@@H](Cc2cccc3ccccc23)C(=O)N[C@@H](Cc2ccccc2)C(=O)N2CCC[C@@]2(C)C(=O)N[C@H](CCCCNC(=O)CN2CCN(CC(=O)O)CCN(CC(=O)O)CCN(CC(=O)O)CC2)C(N)=O)NC(=O)[C@H](Cc2ccc(O)cc2)NC(=O)[C@H](C(C)C)NC(=O)[C@H](CC(=O)O)NC(=O)[C@H](Cc2ccc(O)cc2)NC(=O)[C@H](CCCCN)NC(=O)CNC(=O)[C@H](C(C)(C)C)NC1=O [compound 246, Ac-hLeu-Y-C-Tbg-G-K-Y-D-V-Y-C-1Nal-F-aMePro-dLys(DOTA)-CONH2] (Ac-[hLeu]YC[Tle]GKYDVYC[1Nal]F[αMeP][dK](DOTA)-NH2; disulfide 3-11)",–,1 to 10 nM
"CC(=O)N[C@@H](CCC(C)C)C(=O)N[C@@H](Cc1ccc(O)cc1)C(=O)N[C@H]1CSSC[C@@H](C(=O)N[C@@H](Cc2c[nH]c3ccc(C)cc23)C(=O)N[C@@H](Cc2ccccc2)C(=O)N[C@H](C(=O)N[C@H](CCCCNC(=O)CN2CCN(CC(=O)O)CCN(CC(=O)O)CCN(CC(=O)O)CC2)C(=O)O)C(C)(C)O)NC(=O)[C@H](Cc2ccc(O)cc2)NC(=O)[C@H](C(C)C)NC(=O)[C@H](CC(=O)O)NC(=O)[C@H](CC2CCOCC2)NC(=O)[C@H](CC2CCNCC2)NC(=O)CNC(=O)[C@H](C(C)(C)C)NC1=O [compound 471, Ac-hLeu-Y-C-Tbg-G-PipAla-ThpA-D-V-Y-C-5MeW-F-hydroxyVal-dLys(DOTA)-COOH] (Ac-[hLeu]YC[Tle]G[Ala(piperidin-4-yl)][Ala(4-THP)]DVYC[Trp(5-Me)]F[Val(3-OH)][dK](DOTA)-OH; disulfide 3-11)",1 to 10 nM,–
"CC(=O)N[C@@H](CCC(C)C)C(=O)N[C@@H](Cc1ccc(O)cc1)C(=O)N[C@H]1CSSC[C@@H](C(=O)N[C@@H](Cc2c[nH]c3ccc(F)cc23)C(=O)N[C@H](C(=O)N[C@H](C(=O)N[C@@H](CCCCNC(=O)CN2CCN(CC(=O)O)CCN(CC(=O)O)CCN(CC(=O)O)CC2)C(=O)O)C(C)(C)O)[C@@H](C)c2ccccc2)NC(=O)[C@H](Cc2ccc(O)cc2)NC(=O)[C@H](C(C)C)NC(=O)[C@H](CC(=O)O)NC(=O)[C@H](CC2CCOCC2)NC(=O)[C@H](CC2CCNCC2)NC(=O)CNC(=O)[C@H](C(C)(C)C)NC1=O [compound 509, Ac-hLeu-Y-C-Tbg-G-PipAla-ThpA-D-V-Y-C-5FW-[(2S, 3S)beta-Me-Phe]-hydroxyVal-Lys(DOTA)-COOH] (Ac-[hLeu]YC[Tle]G[Ala(piperidin-4-yl)][Ala(4-THP)]DVYC[Trp(5-F)][X1][Val(3-OH)]K(DOTA)-OH; disulfide 3-11)",< 1 nM,–
